Test [1] concerns the target T1, H1N1 (A/WSN/1933) hemagglutinin (HA) protein (Influenza A virus, UniProt P03454).
T1 construct: purchased Sino Biological Inc. (Beijing, China)
The test can be described thus: biochemical. It is filed as binding, influenza virus H1N1 (A/WSN/1933).

Test [2] deals with H5N1 (A/Hong Kong/483/97) hemagglutinin (HA) protein (Influenza A virus, UniProt Q77XR4). Format: binding, influenza virus H5N1 (A/Hong Kong/483/97). As to conditions: pH 7.4.
Test [3] concerns HA. As to conditions: in our previous work; cited from earlier work.

As to `C=C(C)[C@@H]1CC[C@]2(C(=O)O)CC[C@]3(C)[C@H](CC[C@@H]4[C@@]5(C)CC[C@H](O)C(C)(C)[C@@H]5CC[C@]43C)[C@@H]12` [BA, betulinic acid], the “thermodynamic dissociation constant KD” value is “no affinity” in test [1] (pH 7.4) and “no significant affinity” in test [2].
Take `CC1(C)[C@@H](O)CC[C@]2(C)[C@H]3C(=O)C=C4[C@@H]5C[C@@](C)(C(=O)O)CC[C@]5(C)CC[C@@]4(C)[C@]3(C)CC[C@@H]12` [GA, glycyrrhetinic acid]: the dissociation constant (Kd) (in general, the concentration at which binding is half-saturated) in test [1] came to 584 µM. Besides, in test [2], the “thermodynamic dissociation constant KD” value was “no significant affinity”.
In test [1], `CC1(C)CC[C@]2(C(=O)O)CC[C@]3(C)C(=CC[C@@H]4[C@@]5(C)CC[C@H](O)C(C)(C)[C@@H]5CC[C@]43C)[C@@H]2C1` [OA, oleanolic acid] returned a dissociation constant Kd of 31.1 µM.
The same measure, in the same setting: with `C=C(C)[C@@H]1CC[C@]2(C(=O)OCCOCCOCCOCCOCCOCCn3cc(CCC(=O)N[C@@H](CC(=O)N[C@@H]4O[C@H](CO)[C@@H](O[C@@H]5O[C@H](CO)[C@@H](O[C@@H]6O[C@H](CO[C@H]7O[C@H](CO)[C@@H](O)[C@H](O)[C@@H]7O[C@@H]7O[C@H](CO)[C@@H](O[C@@H]8O[C@H](CO[C@]9(C(=O)O)C[C@H](O)[C@@H](NC(C)=O)[C@H]([C@H](O)[C@H](O)CO)O9)[C@H](O)[C@H](O)[C@H]8O)[C@H](O)[C@H]7NC(C)=O)[C@@H](O)[C@H](O[C@H]7O[C@H](CO)[C@@H](O)[C@H](O)[C@@H]7O[C@@H]7O[C@H](CO)[C@@H](O[C@@H]8O[C@H](CO[C@]9(C(=O)O)C[C@H](O)[C@@H](NC(C)=O)[C@H]([C@H](O)[C@H](O)CO)O9)[C@H](O)[C@H](O)[C@H]8O)[C@H](O)[C@H]7NC(C)=O)[C@@H]6O)[C@H](O)[C@H]5NC(C)=O)[C@H](O)[C@H]4NC(C)=O)C(=O)O)nn3)CC[C@]3(C)[C@H](CC[C@@H]4[C@@]5(C)CC[C@H](O)C(C)(C)[C@@H]5CC[C@]43C)[C@@H]12` [SCT-Asn-BA] the figure was 6.89 µM.
Still for that read-out and setting: with `CC(=O)N[C@@H]1[C@@H](O)[C@H](O[C@@H]2O[C@H](CO)[C@@H](O[C@@H]3O[C@H](CO[C@H]4O[C@H](CO)[C@@H](O)[C@H](O)[C@@H]4O[C@@H]4O[C@H](CO)[C@@H](O[C@@H]5O[C@H](CO[C@]6(C(=O)O)C[C@H](O)[C@@H](NC(C)=O)[C@H]([C@H](O)[C@H](O)CO)O6)[C@H](O)[C@H](O)[C@H]5O)[C@H](O)[C@H]4NC(C)=O)[C@@H](O)[C@H](O[C@H]4O[C@H](CO)[C@@H](O)[C@H](O)[C@@H]4O[C@@H]4O[C@H](CO)[C@@H](O[C@@H]5O[C@H](CO[C@]6(C(=O)O)C[C@H](O)[C@@H](NC(C)=O)[C@H]([C@H](O)[C@H](O)CO)O6)[C@H](O)[C@H](O)[C@H]5O)[C@H](O)[C@H]4NC(C)=O)[C@@H]3O)[C@H](O)[C@H]2NC(C)=O)[C@@H](CO)O[C@H]1NC(=O)C[C@H](NC(=O)CCc1cn(CCOCCOCCOCCOCCOCCOC(=O)[C@@]2(C)CC[C@]3(C)CC[C@]4(C)C(=CC(=O)[C@@H]5[C@@]6(C)CC[C@H](O)C(C)(C)[C@@H]6CC[C@]54C)[C@@H]3C2)nn1)C(=O)O` [SCT-Asn-GA] the figure was 16.4 µM.
For the molecule `CC(=O)N[C@@H]1[C@@H](O)[C@H](O[C@@H]2O[C@H](CO)[C@@H](O[C@@H]3O[C@H](CO[C@H]4O[C@H](CO)[C@@H](O)[C@H](O)[C@@H]4O[C@@H]4O[C@H](CO)[C@@H](O[C@@H]5O[C@H](CO[C@]6(C(=O)O)C[C@H](O)[C@@H](NC(C)=O)[C@H]([C@H](O)[C@H](O)CO)O6)[C@H](O)[C@H](O)[C@H]5O)[C@H](O)[C@H]4NC(C)=O)[C@@H](O)[C@H](O[C@H]4O[C@H](CO)[C@@H](O)[C@H](O)[C@@H]4O[C@@H]4O[C@H](CO)[C@@H](O[C@@H]5O[C@H](CO[C@]6(C(=O)O)C[C@H](O)[C@@H](NC(C)=O)[C@H]([C@H](O)[C@H](O)CO)O6)[C@H](O)[C@H](O)[C@H]5O)[C@H](O)[C@H]4NC(C)=O)[C@@H]3O)[C@H](O)[C@H]2NC(C)=O)[C@@H](CO)O[C@H]1NC(=O)C[C@H](NC(=O)CCc1cn(CCOCCOCCOCCOCCOCCOC(=O)[C@]23CCC(C)(C)C[C@H]2C2=CC[C@@H]4[C@@]5(C)CC[C@H](O)C(C)(C)[C@@H]5CC[C@@]4(C)[C@]2(C)CC3)nn1)C(=O)O` [SCT-Asn-OA], the affinity in test [1], expressed as Kd, was 11.2 µM.
Molecule `CC(=O)N[C@@H]1[C@@H](O)[C@H](O[C@@H]2O[C@H](CO)[C@@H](O[C@@H]3O[C@H](CO[C@H]4O[C@H](CO)[C@@H](O)[C@H](O)[C@@H]4O[C@@H]4O[C@H](CO)[C@@H](O[C@@H]5O[C@H](CO[C@]6(C(=O)O)C[C@H](O)[C@@H](NC(C)=O)[C@H]([C@H](O)[C@H](O)CO)O6)[C@H](O)[C@H](O)[C@H]5O)[C@H](O)[C@H]4NC(C)=O)[C@@H](O)[C@H](O[C@H]4O[C@H](CO)[C@@H](O)[C@H](O)[C@@H]4O[C@@H]4O[C@H](CO)[C@@H](O[C@@H]5O[C@H](CO[C@]6(C(=O)O)C[C@H](O)[C@@H](NC(C)=O)[C@H]([C@H](O)[C@H](O)CO)O6)[C@H](O)[C@H](O)[C@H]5O)[C@H](O)[C@H]4NC(C)=O)[C@@H]3O)[C@H](O)[C@H]2NC(C)=O)[C@@H](CO)O[C@H]1NC(=O)C[C@H](NC(=O)CCc1cn(CCOCCOCCOCCOCCOCCOC(=O)[C@]23CC[C@@H](C)[C@H](C)[C@H]2C2=CC[C@@H]4[C@@]5(C)CC[C@H](O)C(C)(C)[C@@H]5CC[C@@]4(C)[C@]2(C)CC3)nn1)C(=O)O` [SCT-Asn-UA] returned an equilibrium dissociation constant (Kd) in test [1] of 289 µM.
In turn, `C[C@H]1[C@H](C)CC[C@]2(C(=O)O)CC[C@]3(C)C(=CC[C@@H]4[C@@]5(C)CC[C@H](O)C(C)(C)[C@@H]5CC[C@]43C)[C@H]12` [UA, ursolic acid] came in with a dissociation constant (Kd) in test [1] of 137 µM. Also, the “thermodynamic dissociation constant KD” value in test [2] is on record as “no significant affinity”.
Consider Sialylglycopeptide [SGP], for which the “thermodynamic dissociation constant KD” value in test [2] is “no affinity”. The “affinity to HA (SPR)” value in test [3] is given as “no affinity”.

These data come from paper PMC7915185 (Molecules, 2021).
